≈ marks a conversion by molar mass, not a printed value.
Key:
Assay in all cases: in vitro antibacterial evaluation, MIC by broth dilution
Format in all cases: cell-based
Enterococcus sp. = details: broth dilution, 18 hours at 35° C.
Outline: (§1)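 Test organisms, which included recent clinical isolates resistant to methicillin, penicillin and/or vancomycin, were inoculated at 5×10^5 CFU/mL into Muller-Hinton II […] containing antibiotic at 64-0.06 μg/mL. Minimum inhibitory concentrations were then read as the lowest level inhibiting growth.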

Escherichia coli = system: Escherichia coli
Outline: as §1

Staphylococcus sp. = details: broth dilution, 18 hours at 35° C.; for MIC Staphylococcus aureus (GC 1131): strain GC 1131
Outline: as §1

Streptococcus sp. = details: broth dilution, 18 hours at 35° C.
Outline: as §1

- MIC Enterococcus avium (GC 4558) (Enterococcus sp.; Enterococcus avium (GC 4558)): 1 µg/mL (≈ 0.702 µM)
- MIC Enterococcus faecalis (ATCC 29212) (Enterococcus sp.; Enterococcus faecalis (ATCC 29212)): <0.5 µg/mL
- MIC Enterococcus faecalis (GC 2242) (Enterococcus sp.; Enterococcus faecalis (GC 2242)): <1 µg/mL
- MIC Enterococcus faecalis (GC 2691) (Enterococcus sp.; Enterococcus faecalis (GC 2691)): 1 µg/mL (≈ 0.702 µM)
- MIC Enterococcus faecalis (GC 3059) (Enterococcus sp.; Enterococcus faecalis (GC 3059)): 1 µg/mL (≈ 0.702 µM)
- MIC Enterococcus faecalis (GC 4552) (Enterococcus sp.; Enterococcus faecalis (GC 4552)): 1 µg/mL (≈ 0.702 µM)
- MIC Enterococcus faecalis (GC 4553) (Enterococcus sp.; Enterococcus faecalis (GC 4553)): 1 µg/mL (≈ 0.702 µM)
- MIC Enterococcus faecalis (GC 4554) (Enterococcus sp.; Enterococcus faecalis (GC 4554)): 1 µg/mL (≈ 0.702 µM)
- MIC Enterococcus faecalis (GC 6189) (Enterococcus sp.; Enterococcus faecalis (GC 6189)): 1 µg/mL (≈ 0.702 µM)
- MIC Enterococcus faecium (GC 2243) (Enterococcus sp.; Enterococcus faecium (GC 2243)): 1 µg/mL (≈ 0.702 µM)
- MIC Enterococcus faecium (GC 4556) (Enterococcus sp.; Enterococcus faecium (GC 4556)): 1 µg/mL (≈ 0.702 µM)
- MIC Enterococcus faecium (GC 4557) (Enterococcus sp.; Enterococcus faecium (GC 4557)): 1 µg/mL (≈ 0.702 µM)
- MIC Enterococcus faecalis (ATCC 29212) (Enterococcus sp.; strain ATCC 29212): <0.5 µg/mL
- MIC Enterococcus faecalis (GC 2242) (Enterococcus sp.; strain GC 2242): <1 µg/mL
- MIC Enterococcus faecium (GC 2243) (Enterococcus sp.; strain GC 2243): 1 µg/mL (≈ 0.702 µM)
- MIC Enterococcus faecalis (GC 2691) (Enterococcus sp.; strain GC 2691): 1 µg/mL (≈ 0.702 µM)
- MIC Enterococcus faecalis (GC 3059) (Enterococcus sp.; strain GC 3059): 1 µg/mL (≈ 0.702 µM)
- MIC Enterococcus faecalis (GC 4552) (Enterococcus sp.; strain GC 4552): 1 µg/mL (≈ 0.702 µM)
- MIC Enterococcus faecalis (GC 4553) (Enterococcus sp.; strain GC 4553): 1 µg/mL (≈ 0.702 µM)
- MIC Enterococcus faecalis (GC 4554) (Enterococcus sp.; strain GC 4554): 1 µg/mL (≈ 0.702 µM)
- MIC Enterococcus faecium (GC 4556) (Enterococcus sp.; strain GC 4556): 1 µg/mL (≈ 0.702 µM)
- MIC Enterococcus faecium (GC 4557) (Enterococcus sp.; strain GC 4557): 1 µg/mL (≈ 0.702 µM)
- MIC Enterococcus avium (GC 4558) (Enterococcus sp.; strain GC 4558): 1 µg/mL (≈ 0.702 µM)
- MIC Enterococcus faecalis (GC 6189) (Enterococcus sp.; strain GC 6189): 1 µg/mL (≈ 0.702 µM)
- MIC Escherichia coli (ATCC 25922) (Escherichia coli; strain ATCC 25922, 18 hours at 35° C.): 64 µg/mL (≈ 44.9 µM)
- MIC Escherichia coli (GC 4559) (Escherichia coli; strain GC 4559, 18 hours at 35° C.): 64 µg/mL (≈ 44.9 µM)
- MIC Escherichia coli (GC 4560) (Escherichia coli; strain GC 4560, 18 hours at 35° C.): 1 µg/mL (≈ 0.702 µM)
- MIC Staphylococcus aureus (GC 1131) (Staphylococcus sp.; inoculum 5×10^5 CFU/mL): 1 µg/mL (≈ 0.702 µM)
- MIC Staphylococcus aureus (ATCC 29213) (Staphylococcus sp.; strain ATCC 29213): 1 µg/mL (≈ 0.702 µM)
- MIC Staphylococcus aureus (GC 1131) (Staphylococcus sp.): 1 µg/mL (≈ 0.702 µM)
- MIC Staphylococcus aureus (GC 3051) (Staphylococcus sp.; strain GC 3051): 1 µg/mL (≈ 0.702 µM)
- MIC Staphylococcus aureus (GC 3053) (Staphylococcus sp.; strain GC 3053): <0.5 µg/mL
- MIC Staphylococcus aureus (GC 4541) (Staphylococcus sp.; strain GC 4541): 1 µg/mL (≈ 0.702 µM)
- MIC Staphylococcus aureus (GC 4542) (Staphylococcus sp.; strain GC 4542): 1 µg/mL (≈ 0.702 µM)
- MIC Staphylococcus aureus-SMITH (GC 4543) (Staphylococcus sp.; strain GC 4543): 1 µg/mL (≈ 0.702 µM)
- MIC Staphylococcus aureus (GC 4544) (Staphylococcus sp.; strain GC 4544): 1 µg/mL (≈ 0.702 µM)
- MIC Staphylococcus aureus (GC 4545) (Staphylococcus sp.; strain GC 4545): <0.5 µg/mL
- MIC Coagulase Negative Staphylococcus (GC 4547) (Staphylococcus sp.; strain GC 4547): <0.5 µg/mL
- MIC Coagulase Negative Staphylococcus (GC 4548) (Staphylococcus sp.; strain GC 4548): <0.5 µg/mL
- MIC Coagulase Negative Staphylococcus (GC 4549) (Staphylococcus sp.; strain GC 4549): <0.5 µg/mL
- MIC Coagulase Negative Staphylococcus (GC 4551) (Staphylococcus sp.; strain GC 4551): <0.5 µg/mL
- MIC Coagulase Negative Staphylococcus (GC 6257) (Staphylococcus sp.; strain GC 6257): <0.5 µg/mL
- MIC Staphylococcus aureus-SMITH (GC 4543) (Staphylococcus sp.; strain SMITH GC 4543): 1 µg/mL (≈ 0.702 µM)
- MIC Streptococcus agalactiae (GC 4564) (Streptococcus sp.; Streptococcus agalactiae (GC 4564)): <0.5 µg/mL
- MIC Streptococcus pneumoniae (ATCC 6301) (Streptococcus sp.; Streptococcus pneumoniae (ATCC 6301)): <0.5 µg/mL
- MIC Streptococcus pneumoniae (GC 1894) (Streptococcus sp.; Streptococcus pneumoniae (GC 1894)): <0.5 µg/mL
- MIC Streptococcus pneumoniae (GC 4565) (Streptococcus sp.; Streptococcus pneumoniae (GC 4565)): <0.5 µg/mL
- MIC Streptococcus pyogenes (GC 4563) (Streptococcus sp.; Streptococcus pyogenes (GC 4563)): <0.5 µg/mL
- MIC Streptococcus pneumoniae (ATCC 6301) (Streptococcus sp.; strain ATCC 6301): <0.5 µg/mL
- MIC Streptococcus pneumoniae (GC 1894) (Streptococcus sp.; strain GC 1894): <0.5 µg/mL
- MIC Streptococcus pyogenes (GC 4563) (Streptococcus sp.; strain GC 4563): <0.5 µg/mL
- MIC Streptococcus agalactiae (GC 4564) (Streptococcus sp.; strain GC 4564): <0.5 µg/mL
- MIC Streptococcus pneumoniae (GC 4565) (Streptococcus sp.; strain GC 4565): <0.5 µg/mL
Structure (SMILES): CCCc1ccc(C2OCC3OC(OC4C(CO)OC(Oc5ccc(CC6NC(=O)C(C(C)c7ccccc7)NC(=O)CNC(=O)C(CO)NC(=O)C(C(O)C7CNC(=N)N7C7OC(CO)C(O)C(O)C7O)NC(=O)C(C(O)C7CNC(=N)N7)NC6=O)cc5)C(O)C4O)C(O)C(O)C3O2)cc1 (stereo not drawn) [Example 140, Cyclo[glycyl-β-methylphenylalanyl-O-[4-O-[4,6-O-(4-propylbenzylidene)hexopyranosyl]-hexopyranosyl]tyrosyl-3-(2-iminoimidazolidin-4-yl)seryl-3-(3-hexopyranosyl-2-iminoimidazolidin-4-yl)serylseryl]]
- MIC Staphylococcus haemolyticus (GC 4546) (Staphylococcus sp.; strain GC 4546): 1 µg/mL (≈ 0.702 µM)

Source: patent publication US6914045B2, “Glycopeptide antibiotics” (Wyeth Holdings Corporation, priority 2001, dated 2005)
